What was measured:
Type in all cases: in vivo
Set-up in all cases: key: 0: no effect; 10-25% kill; 26-35% kill; 36-45% kill; 46-55% kill; 56-65% kill; 66-75% kill; 76-85% kill; 86-99% kill; 9: 100% kill
[1] = tested on: Spodoptera eridania, 3rd instar larvae, southern armyworm; test: Southern armyworm 7-day residual test; details: R designates Residual: 7-day residual foliage, concentration not given; for ARMYWORM Day 3 R: rating at 3 days; for ARMYWORM Day 5 R: rating at 5 days
How it was run: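 Compound was dissolved in 35% aqueous acetone (10,000 ppm stock) and diluted with water before treating lima bean leaves. The leaves were aged 7 days under high-intensity greenhouse lamps (14 h day). Third-instar Spodoptera eridania larvae were then assayed on the foliage and rated on a scale.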

[2] = tested on: Diabrotic undecimpunctata howardi, 3rd instar southern corn rootworm; test: Southern corn rootworm soil test; details: mortality rating after 6 days
How it was run: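 Compound applied in acetone to talc at 1.25 and 0.25 mg active ingredient per jar (about 50 and 10 kg/ha), dried, then mixed with millet seed and moist soil. Ten 3rd instar larvae added per jar; mortality counted at 6 days, with missing larvae scored dead. Results rated on a scale.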

[3] = tested on: Empoasca abrupta, adult, western potato leafhopper; test: Western potato leafhopper contact test, dipped limabean leaf
How it was run: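 Sieva limabean leaf dipped 3 s in compound solution (diluted in water from 10,000 ppm stock in 35% acetone), dried, and infested with about 10 adult leafhoppers on moist filter paper. Mortality counted after 2 days and scored on a rating scale.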

[4] = tested on: Empoasca abrupta, adult, western potato leafhopper; test: Western potato leafhopper systemic uptake test; details: 100 ppm
How it was run: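 Cut Sieva lima bean stems stood 3 days at 27 °C in aqueous emulsion of test material (100 ppm, further 10-fold dilutions) for systemic uptake. One leaf then exposed to about 10 adult leafhoppers in a moist petri dish; mortality counted after 2 days and rated on a scale.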

[5] = tested on: Heliothis virescens, egg, tobacco budworm; test: Tobacco budworm egg test, dipped cotton leaf and eggs; details: mortality rating after 3 days
How it was run: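 Compound dissolved at 10,000 ppm in 35% aqueous acetone, diluted with water. A cotton leaf and a cheesecloth square with roughly 50-100 eggs aged 6-30 h are each dipped for about 3 s, then combined and kept humid. Mortality counted after 3 days and rated on a scale.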

[6] = tested on: Heliothis virescens, 3rd instar tobacco budworm; test: Tobacco budworm 3rd instar test, dipped cotton cotyledons; details: mortality rating after 3 days
How it was run: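 Cotton cotyledons dipped in compound solution (10,000 ppm stock in 35% aqueous acetone, water dilutions), dried and quartered. One caterpillar per section, ten sections per treatment. After 3 days, mortality and feeding-damage reduction scored on a rating scale.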

[7] = 10 ppm, mortality rating after 2 days
[8] = 100 ppm, mortality rating after 2 days
[9] = cut stem in emulsion 3 days, mortality rating after 2 days
[10] = 10 ppm, contact, rating scale 0-9
[11] = 100 ppm, contact, rating scale 0-9
[12] = systemic uptake, rating scale 0-9

| SMILES | ARMYWORM Day 3 R [1] | ARMYWORM Day 5 R [1] | SOUTHERN CORN ROOTWORM ([2]; 10 (ppm as headed)) | SOUTHERN CORN ROOTWORM ([2]; 50 (ppm as headed)) | LEAFHOPPER Contact [3, 7] | LEAFHOPPER Contact [3, 8] | LEAFHOPPER Systemic [4, 9] | TOBACCO BUDWORM Egg ([5]; 1000 ppm) | TOBACCO BUDWORM 3rd Instar ([6]; 10 ppm) | TOBACCO BUDWORM 3rd Instar ([6]; 100 ppm) | TOBACCO BUDWORM 3rd Instar ([6]; 1000 ppm) | LEAFHOPPER Contact [3, 10] | LEAFHOPPER Contact [3, 11] | LEAFHOPPER Systemic [4, 12] | SOUTHERN CORN ROOTWORM ([2]; 1 (ppm as headed)) | TOBACCO BUDWORM Egg ([5]; 100 ppm) | TOBACCO BUDWORM Egg ([5]; 300 ppm) |
| --- | --- | --- | --- | --- | --- | --- | --- | --- | --- | --- | --- | --- | --- | --- | --- | --- | --- |
| CSCn1c(-c2ccc(Cl)cc2)c(C#N)c(Br)c1C(F)(F)F [Example 25] | 9 (100% kill) | 9 (100% kill) | 0 | 0 | 0 | 9 (100% kill) | 0 | 0 |  |  |  |  |  |  |  |  |  |
| CN=C(NC)SCn1c(Cl)c(C#N)c(Cl)c1-c1ccc(Cl)c(Cl)c1 [Example 19] | 9 (100% kill) | 9 (100% kill) |  | 0 |  |  |  | 0 | 0 | 9 (100% kill) | 9 (100% kill) | 0 | 9 (100% kill) | 0 |  |  |  |
| N=C(N)SCn1c(-c2ccc(Cl)c(Cl)c2)c(Br)c(C(F)(F)F)c1C(F)(F)F [Example 18] | 9 (100% kill) | 9 (100% kill) |  | 0 |  |  |  | 0 | 0 | 9 (100% kill) | 9 (100% kill) |  |  | 0 |  |  |  |
| N#Cc1c(Br)c(Br)n(CSc2ccccc2)c1-c1ccc(C(F)(F)F)cc1 [Example 45, 4,5-dibromo-1-[(phenylthio)methyl]-2-(alpha, alpha,alpha-trifluoro-p-tolyl)pyrrole-3-carbonitrile] | 0 | 0 |  | 0 |  |  |  | 0 |  | 0 | 0 |  |  |  |  |  |  |
| CN(C)C(=S)SCn1c(-c2ccc(Cl)cc2)c(C#N)c(Cl)c1C(F)(F)F [Example 21] | 9 (100% kill) | 9 (100% kill) | 0 | 9 (100% kill) |  |  | 0 | 0 | 9 (100% kill) | 9 (100% kill) | 9 (100% kill) |  |  |  | 0 | 0 |  |
| N#Cc1c(Cl)c(C(F)(F)F)n(CSC2=NCCN2)c1-c1ccc(Cl)cc1 [Example 4] | 9 (100% kill) | 9 (100% kill) |  | 0 | 0 | 9 (100% kill) | 0 | 9 (100% kill) | 9 (100% kill) | 9 (100% kill) | 9 (100% kill) |  |  |  |  | 9 (100% kill) |  |
| CCOC(=S)SCn1c(Cl)c(Cl)c(C#N)c1-c1ccc(Cl)c(Cl)c1 [Example 28] | 9 (100% kill) | 9 (100% kill) |  | 0 |  |  |  | 0 | 0 |  |  | 0 | 9 (100% kill) | 0 |  | 0 |  |
| CC1(C)CN=C(SCn2c(-c3ccc(Cl)cc3)c(C#N)c(Br)c2C(F)(F)F)NC1 [Example 10] | 9 (100% kill) | 9 (100% kill) |  | 0 |  |  |  | 0 | 0 |  |  | 0 | 7 (76-85% kill) | 6 (66-75% kill) |  | 0 |  |
| CN=C(NC)SCn1c(Br)c(Br)c(C#N)c1Br [Example 14] | 0 | 5 (56-65% kill) |  | 0 |  |  |  | 0 |  | 0 | 8 (86-99% kill) |  | 0 | 7 (76-85% kill) |  |  |  |
| N#Cc1c(Br)c(Br)n(CSC2=NCCCN2)c1Br [Example 13] | 0 | 7 (76-85% kill) |  | 0 |  |  |  | 0 |  |  | 0 |  | 0 | 0 |  |  |  |
| CC(C)OC(=S)SCn1c(-c2ccc(Cl)cc2)c(C#N)c(Br)c1C(F)(F)F [Example 30] | 9 (100% kill) | 9 (100% kill) |  | 9 (100% kill) |  |  |  | 0 |  |  |  |  |  | 0 |  | 0 |  |
| CCOC(=S)SCn1c(-c2ccc(Cl)c(Cl)c2)c(Br)c(C(F)(F)F)c1C(F)(F)F [Example 35] | 9 (100% kill) | 9 (100% kill) |  | 0 |  |  |  | 0 |  |  |  | 9 (100% kill) | 9 (100% kill) | 0 |  |  |  |
| N#Cc1c(Br)c(C(F)(F)F)n(CSC2=NCCN2)c1-c1ccc(Cl)cc1 [Example 7] | 9 (100% kill) | 9 (100% kill) | 0 | 9 (100% kill) |  |  | 0 | 9 (100% kill) |  |  |  |  |  |  | 0 | 0 | 8 (86-99% kill) |
| CSCn1c(Br)c(Br)c(C#N)c1-c1ccc(C(F)(F)F)cc1 [Example 44] | 0 | 2 (26-35% kill) | 0 | 3 (36-45% kill) | 0 | 7 (76-85% kill) | 0 | 0 | 0 | 0 | 9 (100% kill) |  |  |  |  |  |  |
| CN=C(NC)SCn1c(-c2ccc(Cl)cc2)c(C#N)c(Cl)c1C(F)(F)F [Example 2] | 9 (100% kill) | 9 (100% kill) | 0 | 8 (86-99% kill) |  |  | 0 | 0 | 9 (100% kill) | 9 (100% kill) | 9 (100% kill) |  |  |  | 0 | 0 |  |
| CN(C)C(=S)SCn1c(Cl)c(C#N)c(Cl)c1-c1ccc(Cl)c(Cl)c1 [Example 36] | 9 (100% kill) | 9 (100% kill) |  | 0 |  |  |  | 0 | 0 | 9 (100% kill) | 9 (100% kill) |  | 6 (66-75% kill) | 0 |  |  |  |
| CCOC(=S)SCn1c(-c2ccc(Cl)cc2)c(C#N)c(Br)c1C(F)(F)F [Example 29] | 9 (100% kill) | 9 (100% kill) |  | 9 (100% kill) |  |  |  | 4 (46-55% kill) |  |  |  | 9 (100% kill) | 9 (100% kill) | 0 |  | 0 |  |
| FC(F)(F)c1c(Br)c(-c2ccc(Cl)c(Cl)c2)n(CSC2=NCCCN2)c1C(F)(F)F [Example 17] | 9 (100% kill) | 9 (100% kill) |  | 7 (76-85% kill) |  |  |  | 0 |  |  |  |  | 5 (56-65% kill) | 0 |  |  |  |

— EP0545103A1, “Insecticidal, acaricidal and molluscicidal 1-(substituted) thioalkylpyrroles” (priority 1991, dated 1993)
